Results published in patent US8426408B2, “Pyrimidine inhibitors of kinases” (AbbVie Inc., priority 2009, dated 2013).

What was measured:
Format in all cases: biochemical
Aurora A = molecular target: T1, Aurora A (Homo sapiens, UniProt O14965); assay: Aurora A enzyme inhibition (time-resolved fluorescence, STK substrate-2); conditions: 1 mM ATP
T1 sequence (O14965 1-403): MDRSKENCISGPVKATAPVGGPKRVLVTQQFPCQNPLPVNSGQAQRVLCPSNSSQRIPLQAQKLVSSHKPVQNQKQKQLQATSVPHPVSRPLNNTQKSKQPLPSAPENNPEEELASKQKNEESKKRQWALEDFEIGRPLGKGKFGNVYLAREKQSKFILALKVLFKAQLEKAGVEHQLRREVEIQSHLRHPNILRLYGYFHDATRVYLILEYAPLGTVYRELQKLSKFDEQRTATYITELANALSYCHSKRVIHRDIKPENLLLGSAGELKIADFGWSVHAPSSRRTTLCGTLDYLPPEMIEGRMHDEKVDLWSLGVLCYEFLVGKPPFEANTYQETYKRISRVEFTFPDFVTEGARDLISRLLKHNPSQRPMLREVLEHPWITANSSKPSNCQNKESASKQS
Procedure: To determine Aurora A and C activity of representative compounds of the invention, Active Aurora A or C enzyme was incubated in wells of a 384 well plate with biotinylated STK substrate-2 (Upstate), 1 mM ATP, and various concentrations of inhibitors in a Hepes buffer, pH 7.4 containing MgCl2, sodium othrovanadate, and Triton X-100. After 1 hour, the reaction was stopped with EDTA and anti-phospho-STK antibody Europium Cryptate (Upstate) and SA-XL665 (Upstate) were added to detect the phosphopeptide. The amount of phosphorylation was determined by the time-resolved fluorescence ratio of signals at 665 nm and 615 nm. The IC50s were calculated by an exponential fit of the inhibition values with the inhibitor concentrations using Assay Explorer software.

Aurora B = molecular target: T2, Aurora B (Homo sapiens, UniProt Q96GD4); assay: Aurora B enzyme inhibition (time-resolved fluorescence, histone H3 peptide); conditions: 1 mM ATP
T2 construct: Active Aurora B enzyme (recombinant residues 1-344)
T2 sequence (Q96GD4 whole entry, the tested form may be a part): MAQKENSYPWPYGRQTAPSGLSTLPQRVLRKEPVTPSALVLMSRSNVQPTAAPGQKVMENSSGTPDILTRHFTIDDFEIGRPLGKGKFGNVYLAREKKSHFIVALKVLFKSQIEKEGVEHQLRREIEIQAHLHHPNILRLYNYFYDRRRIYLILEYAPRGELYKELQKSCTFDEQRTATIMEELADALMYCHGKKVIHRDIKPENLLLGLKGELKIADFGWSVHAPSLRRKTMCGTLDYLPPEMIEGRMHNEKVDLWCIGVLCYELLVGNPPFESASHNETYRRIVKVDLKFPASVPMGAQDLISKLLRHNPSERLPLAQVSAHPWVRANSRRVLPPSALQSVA
T2 sequence (Q9NQS7 826-918 partner limits assumed): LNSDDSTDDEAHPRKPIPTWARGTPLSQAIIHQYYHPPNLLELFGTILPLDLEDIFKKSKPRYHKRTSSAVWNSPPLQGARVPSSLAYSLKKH
Procedure: To determine Aurora B activity of representative compounds of the invention, Active Aurora B enzyme (recombinant residues 1-344) and INCENP (recombinant GST fusion protein (Upstate)) were incubated in wells of a 384 well plate with biotinylated histone H3 peptide residues 1-21 (Upstate), 1 mM ATP, and various concentrations of inhibitors in a HEPES buffer, pH 7.4 containing MgCl2, sodium othrovanadate, and Triton X-100. After 1 hour, the reaction was stopped with EDTA and anti-phospho-histone H3 Europium Cryptate (Cis-Bio) and SA-APC (Phycolink, Prozyme) were added to detect the phosphopeptide. The amount of phosphorylation was determined by the time-resolved fluorescence ratio of signals at 665 nm and 615 nm. The IC50's were calculated by an exponential fit of the inhibition values with the inhibitor concentrations using Assay Explorer software.

KDR = KDR (Homo sapiens, UniProt P35968); assay: KDR HTRF in vitro kinase assay; design: purified enzyme (His6-KDR 789-1354, MW 63 kD); His6 (N); conditions: 1 mM ATP; read-out: KDR enzyme inhibition data (Ki)
Chain of KDR (P35968 789-1354): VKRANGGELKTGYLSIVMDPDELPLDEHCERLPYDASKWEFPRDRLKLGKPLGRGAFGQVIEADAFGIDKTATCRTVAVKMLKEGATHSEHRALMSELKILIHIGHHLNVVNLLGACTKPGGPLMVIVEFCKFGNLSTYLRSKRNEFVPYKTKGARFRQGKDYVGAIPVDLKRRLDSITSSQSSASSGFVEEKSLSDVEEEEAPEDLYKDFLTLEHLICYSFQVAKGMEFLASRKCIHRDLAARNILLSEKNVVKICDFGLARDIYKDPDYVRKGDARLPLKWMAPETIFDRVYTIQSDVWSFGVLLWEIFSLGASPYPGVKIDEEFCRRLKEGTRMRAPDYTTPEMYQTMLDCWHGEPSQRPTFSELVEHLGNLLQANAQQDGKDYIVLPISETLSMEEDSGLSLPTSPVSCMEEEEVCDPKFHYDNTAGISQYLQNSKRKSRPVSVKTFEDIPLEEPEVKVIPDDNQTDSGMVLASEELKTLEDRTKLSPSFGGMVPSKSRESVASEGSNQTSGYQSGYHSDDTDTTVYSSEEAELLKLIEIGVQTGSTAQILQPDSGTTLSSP
Procedure: To determine the activity of the various kinases, a homogenous time-resolved fluorescence (HTRF) in vitro kinase assay was used. (Mathis, G., HTRF® Technology. J Biomol Screen, 1999. 4(6): p. 309-314; Alfred J. Kolb, Paul V. Kaplita, David J. Hayes, Young-Whan Park, Christine Pernell, John S. Major and Gerard Mathis, Drug Discovery Today, 1998, 3, 333-342.)
For example for KDR, 7 ng/well of purified enzyme (His6-KDR 789-1354, MW 63 kD) was mixed with 0.5 μM N-biotinylated substrate (Biotin-Ahx-AEEEYFFLA-amide (SEQ. ID. 1)), various concentrations of inhibitor in reaction buffer (50 mM HEPES, pH 7.1, 10 mM MgCl2, 2 mM MnCl2, 0.1% BSA and 1 mM DTT, 40 L final volume), ATP (1 mM final conc.) in a black 384-well plate. After 60 minutes incubation at room temperature, the reaction was quenched by addition of a buffered EDTA solution (final approximate concentrations: 30 mM EDTA, 0.1% BSA, 0.1% Triton X-100 and 0.24M KF) and a solution of revelation agents (to give 0.084 ng/well streptavidin-XL-665 (Cis-Bio) and 6.5 ng/well antiphsophotyrosine mAb PT66-K Europium kryptate) was added to the reaction mixture. The quenched reaction was allowed to stand at room temperature for 3 hours and was then read in a time-resolved fluorescence detector (InVision, Perkin-Elmer) at 620 nm and 665 nm sequentially with excitation. The ratio between the signal of 620 nm and 665 nm was used in the calculation of the IC50.

Compound	Ki (Aurora A)	Ki (Aurora B)	Ki (KDR)
CCn1cc(Nc2ncc(C(F)(F)F)c(N[C@@H]3[C@H](C(=O)NC4CC4)[C@H]4C=C[C@@H]3C4)n2)cn1.CCn1cc(Nc2ncc(C(F)(F)F)c(N[C@H]3[C@@H](C(=O)NC4CC4)[C@@H]4C=C[C@H]3C4)n2)cn1 (mixture of isomers) [Example 71, (1S,2S,3R,4R)—N-cyclopropyl-3-{[2-[(1-ethyl-1H-pyrazol-4-yl)amino]-5-(trifluoromethyl)pyrimidin-4-yl]amino}bicyclo[2.2.1]hept-5-ene-2-carboxamide and (1R,2R,3S,4S)—N-cyclopropyl-3-{[2-[(1-ethyl-1H-pyrazol-4-yl)amino]-5-(trifluoromethyl)pyrimidin-4-yl]amino}bicyclo[2.2.1]hept-5-ene-2-carboxamide]	< 0.1 µM	< 0.1 µM	< 0.1 µM
NC(=O)Cn1cc(Nc2ncc(Cl)c(N[C@H]3[C@@H](C(N)=O)[C@@H]4C=C[C@H]3C4)n2)cn1 [Example 74, (1S,2S,3R,4R)-3-[(2-{[1-(2-amino-2-oxoethyl)-1H-pyrazol-4-yl]amino}-5-chloropyrimidin-4-yl)amino]bicyclo[2.2.1]hept-5-ene-2-carboxamide]	< 0.1 µM	< 0.1 µM	< 0.1 µM
CC(=O)NCC(=O)N1CCC(n2cc(Nc3ncc(Cl)c(N[C@H]4[C@@H](C(N)=O)[C@@H]5C=C[C@H]4C5)n3)cn2)CC1 [Example 85, (1S,2S,3R,4R)-3-{[2-({1-[1-(N-acetylglycyl)piperidin-4-yl]-1H-pyrazol-4-yl}amino)-5-chloropyrimidin-4-yl]amino}bicyclo[2.2.1]hept-5-ene-2-carboxamide]	< 0.1 µM	< 0.1 µM	< 0.1 µM
Cn1cc(Nc2ncc(Cl)c(N[C@@H]3[C@H]4CC[C@H](C4)[C@@H]3C(N)=O)n2)cn1.Cn1cc(Nc2ncc(Cl)c(N[C@H]3[C@@H]4CC[C@@H](C4)[C@H]3C(N)=O)n2)cn1 (mixture of isomers) [Example 56, (1R,2S,3R,4S)-3-({5-chloro-2-[(1-methyl-1H-pyrazol-4-yl)amino]pyrimidin-4-yl}amino)bicyclo[2.2.1]heptane-2-carboxamide and (1S,2R,3S,4R)-3-({5-chloro-2-[(1-methyl-1H-pyrazol-4-yl)amino]pyrimidin-4-yl}amino)bicyclo[2.2.1]heptane-2-carboxamide]	< 0.1 µM	< 0.1 µM	< 0.1 µM
CCn1cc(Nc2ncc(C(F)(F)F)c(N[C@H]3[C@@H](C(N)=O)[C@@H]4C=C[C@H]3C4)n2)cn1 [Example 62, (1S,2S,3R,4R)-3-{[2-[(1-ethyl-1H-pyrazol-4-yl)amino]-5-(trifluoromethyl)pyrimidin-4-yl]amino}bicyclo[2.2.1]hept-5-ene-2-carboxamide]	< 0.1 µM	< 0.1 µM	< 0.1 µM
Cn1cc(Nc2ncc(Cl)c(N[C@H]3[C@@H](C(N)=O)[C@@H]4C=C[C@H]3C4)n2)cn1 [Example 41, (1S,2S,3R,4R)-3-({5-chloro-2-[(1-methyl-1H-pyrazol-4-yl)amino]pyrimidin-4-yl}amino)bicyclo[2.2.1]hept-5-ene-2-carboxamide]	< 0.1 µM	< 0.1 µM	< 0.1 µM
C[C@@H](O)Cn1cc(Nc2ncc(F)c(N[C@@H]3[C@H]4CC[C@H](C4)[C@@H]3C(N)=O)n2)cn1.C[C@@H](O)Cn1cc(Nc2ncc(F)c(N[C@H]3[C@@H]4CC[C@@H](C4)[C@H]3C(N)=O)n2)cn1 (mixture of isomers) [Example 16, (1S,2R,3S,4R)-3-{[5-fluoro-2-({1-[(2R)-2-hydroxypropyl]-1H-pyrazol-4-yl}amino)pyrimidin-4-yl]amino}bicyclo[2.2.1]heptane-2-carboxamide and (1R,2S,3R,4S)-3-{[5-fluoro-2-({1-[(2R)-2-hydroxypropyl]-1H-pyrazol-4-yl}amino)pyrimidin-4-yl]amino}bicyclo[2.2.1]heptane-2-carboxamide]	0.1 to 1 µM	0.1 to 1 µM	1 to 5 µM
CCn1cc(Nc2ncc(OC)c(NC3C4C=CC(C4)C3C(N)=O)n2)cn1 (mixture of isomers) [Example 53, (1S,2S,3R,4R)-3-({2-[(1-ethyl-1H-pyrazol-4-yl)amino]-5-methoxypyrimidin-4-yl}amino)bicyclo[2.2.1]hept-5-ene-2-carboxamide and (1R,2R,3S,4S)-3-({2-[(1-ethyl-1H-pyrazol-4-yl)amino]-5-methoxypyrimidin-4-yl}amino)bicyclo[2.2.1]hept-5-ene-2-carboxamide]	< 0.1 µM	< 0.1 µM	< 0.1 µM
NC(=O)[C@@H]1[C@H](Nc2nc(Nc3cnn(CCN4CCCCC4)c3)ncc2Cl)[C@H]2C=C[C@@H]1C2.NC(=O)[C@H]1[C@@H](Nc2nc(Nc3cnn(CCN4CCCCC4)c3)ncc2Cl)[C@@H]2C=C[C@H]1C2 (mixture of isomers) [Example 36, (1S,2S,3R,4R)-3-[(5-chloro-2-{[1-(2-piperidin-1-ylethyl)-1H-pyrazol-4-yl]amino}pyrimidin-4-yl)amino]bicyclo[2.2.1]hept-5-ene-2-carboxamide and (1R,2R,3S,4S)-3-[(5-chloro-2-{[1-(2-piperidin-1-ylethyl)-1H-pyrazol-4-yl]amino}pyrimidin-4-yl)amino]bicyclo[2.2.1]hept-5-ene-2-carboxamide]	< 0.1 µM	< 0.1 µM	< 0.1 µM
CNC(=O)[C@@H]1[C@H](Nc2nc(Nc3cnn(C)c3)ncc2Cl)[C@H]2C=C[C@@H]1C2 (racemic) [Example 50, (1S,2S,3R,4R)-3-({5-chloro-2-[(1-methyl-1H-pyrazol-4-yl)amino]pyrimidin-4-yl}amino)-N-methylbicyclo[2.2.1]hept-5-ene-2-carboxamide and (1R,2R,3S,4S)-3-({5-chloro-2-[(1-methyl-1H-pyrazol-4-yl)amino]pyrimidin-4-yl}amino)-N-methylbicyclo[2.2.1]hept-5-ene-2-carboxamide]	< 0.1 µM	< 0.1 µM	< 0.1 µM
NC(=O)[C@@H]1[C@H](Nc2nc(Nc3cnn(CCN4CCCC4)c3)ncc2Cl)[C@H]2C=C[C@@H]1C2 (racemic) [Example 34, (1S,2S,3R,4R)-3-[(5-chloro-2-{[1-(2-pyrrolidin-1-ylethyl)-1H-pyrazol-4-yl]amino}pyrimidin-4-yl)amino]bicyclo[2.2.1]hept-5-ene-2-carboxamide and (1R,2R,3S,4S)-3-[(5-chloro-2-{[1-(2-pyrrolidin-1-ylethyl)-1H-pyrazol-4-yl]amino}pyrimidin-4-yl)amino]bicyclo[2.2.1]hept-5-ene-2-carboxamide]	< 0.1 µM	< 0.1 µM	< 0.1 µM
